Data published in ChEMBL document CHEMBL4342449, “Isolation of a High-Affinity Cannabinoid for the Human CB1 Receptor from a Medicinal Cannabis sativa Variety: Δ9-Tetrahydrocannabutol, the Butyl Homologue of Δ9-Tetrahydrocannabinol” (J Nat Prod, 2020).
Active and inactive are the calls of the source. The rule behind the calls is not given here.

Columns and labels:
Mus musculus [1] = test: In vivo Cannabi-mimetic activity in C57BL6/J mouse assessed as catalepsy bar at 10 mg/kg, ip by bar test (reference value: 3.5 +/- 0.65 sec); type: functional
Mus musculus [2] = test: In vivo Cannabi-mimetic activity in C57BL6/J mouse assessed as alteration on the spontaneous activity at 10 mg/kg, ip measured for 15 mins by open field test (reference value: 3283 +/- 390.5 cm); type: functional
Mus musculus [3] = test: In vivo Cannabi-mimetic activity in C57BL6/J mouse assessed as alteration on the spontaneous activity at 20 mg/kg, ip measured for 15 mins by open field test (reference value: 3283 +/- 390.5 cm); type: functional
Mus musculus [4] = test: In vivo Cannabi-mimetic activity in C57BL6/J mouse assessed as antinociceptive effect by measuring licking of hind paws at 10 mg/kg, ip measured for 85 mins by hot plate test (reference value: 10.15 +/- 0.70 sec); type: functional
Mus musculus [5] = test: (§1) Analgesic activity in formalin-induced nociception CD-1 mouse model assessed as reduction in pain behaviour by measuring less licking of formalin injected hind paw at 3 mg/kg, ip pretreated with compound 20 mins prior to formalin induction measured during first phase (0 to 7 mins after formalin injection) by formalin test; type: functional, organism-based
Mus musculus [6] = test: as §1, with “flinching” for “licking”, “second” for “first”, “(every 5 mins for 15” for “(0”, “60” for “7”; type: functional, organism-based
Mus musculus [7] = test: as §1, with “favoring” for “licking”, “induction co-treated with AM251 and” for “induction”, “every 5” for “during first phase (0 to 7”, “for 1 hr” for “after formalin injection)”; type: functional, organism-based
Mus musculus [8] = test: In vivo Cannabi-mimetic activity in C57BL6/J mouse assessed as rectal temperature at 20 mg/kg, ip measured after 50 mins (reference value: 0.53 +/- 0.21 degreeC); type: functional
Mus musculus [9] = test: In vivo Cannabi-mimetic activity in C57BL6/J mouse assessed as rectal temperature at 10 mg/kg, ip measured after 50 mins (reference value: 0.53 +/- 0.21 degreeC); type: functional
Mus musculus [10] = test: as §1, with “lifting” for “licking”; type: functional, organism-based
Mus musculus [11] = test: as §1, with “shaking” for “licking”, “second” for “first”, “(every 5 mins for 15” for “(0”, “60” for “7”; type: functional, organism-based
Mus musculus [12] = test: as §1, with “shaking” for “licking”, “induction co-treated with AM630 and” for “induction”, “every 5” for “during first phase (0 to 7”, “for 1 hr” for “after formalin injection)”; type: functional, organism-based
Mus musculus [13] = test: as §1, with “lifting” for “licking”, “induction co-treated with AM630 and” for “induction”, “every 5” for “during first phase (0 to 7”, “for 1 hr” for “after formalin injection)”; type: functional, organism-based
Mus musculus [14] = test: as §1, with “flinching” for “licking”, “induction co-treated with AM630 and” for “induction”, “every 5” for “during first phase (0 to 7”, “for 1 hr” for “after formalin injection)”; type: functional, organism-based
Mus musculus [15] = test: as §1, with “shaking” for “licking”; type: functional, organism-based
Mus musculus [16] = test: as §1, with “flinching” for “licking”, “induction co-treated with AM251 and” for “induction”, “every 5” for “during first phase (0 to 7”, “for 1 hr” for “after formalin injection)”; type: functional, organism-based
Mus musculus [17] = test: as §1, with “favoring” for “licking”, “second” for “first”, “(every 5 mins for 15” for “(0”, “60” for “7”; type: functional, organism-based
Mus musculus [18] = test: as §1, with “induction co-treated with AM251 and” for “induction”, “every 5” for “during first phase (0 to 7”, “for 1 hr” for “after formalin injection)”; type: functional, organism-based
Mus musculus [19] = test: In vivo Cannabi-mimetic activity in C57BL6/J mouse assessed as antinociceptive effect by measuring licking of hind paws at 20 mg/kg, ip measured for 85 mins by hot plate test (reference value: 10.15 +/- 0.70 sec); type: functional
Mus musculus [20] = test: as §1, with “favoring” for “licking”; type: functional, organism-based
Mus musculus [21] = test: as §1, with “lifting” for “licking”, “second” for “first”, “(every 5 mins for 15” for “(0”, “60” for “7”; type: functional, organism-based
Mus musculus [22] = test: as §1, with “shaking” for “licking”, “induction co-treated with AM251 and” for “induction”, “every 5” for “during first phase (0 to 7”, “for 1 hr” for “after formalin injection)”; type: functional, organism-based
Mus musculus [23] = test: as §1, with “flinching” for “licking”; type: functional, organism-based
Mus musculus [24] = test: as §1, with “lifting” for “licking”, “induction co-treated with AM251 and” for “induction”, “every 5” for “during first phase (0 to 7”, “for 1 hr” for “after formalin injection)”; type: functional, organism-based
Mus musculus [25] = test: In vivo Cannabi-mimetic activity in C57BL6/J mouse assessed as catalepsy bar at 20 mg/kg, ip by bar test (reference value: 3.5 +/- 0.65 sec); type: functional
Mus musculus [26] = test: as §1, with “favoring” for “licking”, “induction co-treated with AM630 and” for “induction”, “every 5” for “during first phase (0 to 7”, “for 1 hr” for “after formalin injection)”; type: functional, organism-based
Mus musculus [27] = test: as §1, with “induction co-treated with AM630 and” for “induction”, “every 5” for “during first phase (0 to 7”, “for 1 hr” for “after formalin injection)”; type: functional, organism-based
Mus musculus [28] = test: as §1, with “second” for “first”, “(every 5 mins for 15” for “(0”, “60” for “7”; type: functional, organism-based
Cannabinoid receptor 1 = Cannabinoid receptor 1 (Homo sapiens, UniProt P21554); test: Binding affinity to human CB1 receptor
Chain of Cannabinoid receptor 1 (P21554 whole entry): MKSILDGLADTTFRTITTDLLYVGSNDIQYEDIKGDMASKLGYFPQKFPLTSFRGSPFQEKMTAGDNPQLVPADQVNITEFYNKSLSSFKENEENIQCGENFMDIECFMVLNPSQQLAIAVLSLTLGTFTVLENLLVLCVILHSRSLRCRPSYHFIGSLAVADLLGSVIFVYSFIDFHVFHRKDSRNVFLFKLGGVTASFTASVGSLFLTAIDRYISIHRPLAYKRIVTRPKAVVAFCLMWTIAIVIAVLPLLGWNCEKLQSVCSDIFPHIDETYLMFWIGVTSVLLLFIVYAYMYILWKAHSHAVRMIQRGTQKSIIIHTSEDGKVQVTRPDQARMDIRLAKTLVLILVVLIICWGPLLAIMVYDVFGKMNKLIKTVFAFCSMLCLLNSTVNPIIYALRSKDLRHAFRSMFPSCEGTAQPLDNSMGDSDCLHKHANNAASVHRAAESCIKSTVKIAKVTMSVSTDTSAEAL

CCCCc1cc(O)c2c(c1)OC(C)(C)[C@@H]1CCC(C)=C[C@@H]21 was tested, and the Time (Mus musculus [1]) was 3 s, the Activity (Mus musculus [2]) was 3220 cm and the Activity (Mus musculus [3]) was 3591 cm. For the same compound, the Time (Mus musculus [4]) was 7.94 s, the Activity (Mus musculus [5]) was “Active” and the Activity (Mus musculus [6]) was “Active”. For the same compound, the Activity (Mus musculus [7]) was “inactive”, the Activity (Mus musculus [8]) was 0.4 °C and the Activity (Mus musculus [9]) was -0.28 °C. The Activity (Mus musculus [10]) was “Active”, the Activity (Mus musculus [11]) was “Active” and the Activity (Mus musculus [12]) was “inactive”. For the same compound, the Activity (Mus musculus [13]) was “inactive”, the Activity (Mus musculus [14]) was “inactive” and the Activity (Mus musculus [15]) was “Active”. The Activity (Mus musculus [16]) was “inactive”, the Activity (Mus musculus [17]) was “Active” and the Activity (Mus musculus [18]) was “inactive”. The Time (Mus musculus [19]) was 17.5 s, the Activity (Mus musculus [20]) was “Active” and the Activity (Mus musculus [21]) was “Active”. For the same compound, the Activity (Mus musculus [22]) was “inactive”, the Activity (Mus musculus [23]) was “Active” and the Activity (Mus musculus [24]) was “inactive”. The Time (Mus musculus [25]) was 13 s, the Activity (Mus musculus [26]) was “inactive” and the Activity (Mus musculus [27]) was “inactive”. The Activity (Mus musculus [28]) was “Active”.

Compound CCCc1cc(O)c2c(c1)OC(C)(C)[C@@H]1CCC(C)=C[C@@H]21 [TETRAHYDROCANNABIVARIN] has a Ki (Cannabinoid receptor 1) of 75.4 nM.
